Series [1] in a line: Compound cytotoxicity, XTT-based colorimetric assay. The class given is cell-based. The note with it: human; uninfected MT2 cells, day 4, XTT. The essentials:
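Run under the antiviral-assay protocol but without virus. Viability was read on day 4 and CC50 values were derived from the readout.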

The test system of series [2] is recombinant NL4-3 virus (Renilla luciferase) in MT-2 cells. As to the kind of experiment: HIV cell culture assay (antiviral activity, luciferase readout). Type of series: cell-based. The note with it: Renilla, NL43. The essentials:
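MT-2 cells were infected with recombinant NL4-3 virus carrying Renilla luciferase in place of part of nef. Cells were cultured 4–5 days with serially diluted compound, and luciferase was measured with a live-cell substrate. EC50 was calculated from the median effect equation.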

Structures are written as SMILES.

Take `CC(C)c1nccc(-c2ccc3c(=O)n(-c4ccc(Cl)c5c(NS(C)(=O)=O)nn(C)c45)c([C@H](Cc4cc(F)cc(F)c4)NC(=O)Cn4nc(C(F)F)c5c4C(F)(F)[C@@H]4C[C@H]54)nc3c2)n1` (atropisomer, axis not shown; (P)) [Example 67, N—((S)-1-((3P)-3-(4-chloro-1-methyl-3-(methylsulfonamido)-1H-indazol-7-yl)-7-(2-isopropylpyrimidin-4-yl)-4-oxo-3,4-dihydroquinazolin-2-yl)-2-(3,5-difluorophenyl)ethyl)-2-((3bS,4aR)-3-(difluoromethyl)-5,5-difluoro-3b,4,4a,5-tetrahydro-1H-cyclopropa[3,4]cyclopenta[1,2-c]pyrazol-1-yl)acetamide]: the half-maximal cytotoxic concentration (CC50) – broadly, the concentration at which the toxic effect on the cells reaches its halfway point – at 4 days in series [1] is greater than 500 nM. In addition, the EC50 (commonly the concentration at which the effect is half-maximal) in series [2] is 0.15 nM.
On the same counts, the results for `CCc1cc(-c2ccc3c(=O)n(-c4ccc(Cl)c5c(NS(C)(=O)=O)nn(C)c45)c([C@H](Cc4cc(F)cc(F)c4)NC(=O)Cn4nc(C(F)F)c5c4C(F)(F)[C@@H]4C[C@H]54)nc3c2)nc(CC)n1` (atropisomer, axis not shown; (P)) [Example 68, N—((S)-1-((3P)-3-(4-chloro-1-methyl-3-(methylsulfonamido)-1H-indazol-7-yl)-7-(2,6-diethylpyrimidin-4-yl)-4-oxo-3,4-dihydroquinazolin-2-yl)-2-(3,5-difluorophenyl)ethyl)-2-((3bS,4aR)-3-(difluoromethyl)-5,5-difluoro-3b,4,4a,5-tetrahydro-1H-cyclopropa[3,4]cyclopenta[1,2-c]pyrazol-1-yl)acetamide] are greater than 500 nM and 0.18 nM.
As for `CCOc1cc(-c2ccc3c(=O)n(-c4ccc(Cl)c5c(NS(C)(=O)=O)nn(C)c45)c([C@H](Cc4cc(F)cc(F)c4)NC(=O)Cn4nc(C(F)F)c5c4C(F)(F)[C@@H]4C[C@H]54)nc3c2)nc(C)n1` (atropisomer, axis not shown; (P)) [Example 69, N—((S)-1-((3P)-3-(4-chloro-1-methyl-3-(methylsulfonamido)-1H-indazol-7-yl)-7-(6-ethoxy-2-methylpyrimidin-4-yl)-4-oxo-3,4-dihydroquinazolin-2-yl)-2-(3,5-difluorophenyl)ethyl)-2-((3bS,4aR)-3-(difluoromethyl)-5,5-difluoro-3b,4,4a,5-tetrahydro-1H-cyclopropa[3,4]cyclopenta[1,2-c]pyrazol-1-yl)acetamide], the CC50 at 4 days in series [1] was greater than 500 nM. Also, the EC50 in series [2] turned out to be 0.43 nM.
On the same counts, the results for `Cn1nc(NS(C)(=O)=O)c2c(Cl)ccc(-n3c([C@H](Cc4cc(F)cc(F)c4)NC(=O)Cn4nc(C(F)F)c5c4C(F)(F)[C@@H]4C[C@H]54)nc4cc(-c5ccnc(C(C)(C)C)n5)ccc4c3=O)c21` (atropisomer, axis not shown; (P)) [Example 72, N—((S)-1-(7-(2-(tert-butyl)pyrimidin-4-yl)-(3P)-3-(4-chloro-1-methyl-3-(methylsulfonamido)-1H-indazol-7-yl)-4-oxo-3,4-dihydroquinazolin-2-yl)-2-(3,5-difluorophenyl)ethyl)-2-((3bS,4aR)-3-(difluoromethyl)-5,5-difluoro-3b,4,4a,5-tetrahydro-1H-cyclopropa[3,4]cyclopenta[1,2-c]pyrazol-1-yl)acetamide] are greater than 500 nM and 0.43 nM.
For `Cn1nc(NS(C)(=O)=O)c2c(Cl)ccc(-n3c([C@H](Cc4cc(F)cc(F)c4)NC(=O)Cn4nc(C(F)F)c5c4C(F)(F)[C@@H]4C[C@H]54)nc4cc(-c5ccnc(C6CCCC6)n5)ccc4c3=O)c21` (atropisomer, axis not shown; (P)) [Example 73, N—((S)-1-((3P)-3-(4-chloro-1-methyl-3-(methylsulfonamido)-1H-indazol-7-yl)-7-(2-cyclopentylpyrimidin-4-yl)-4-oxo-3,4-dihydroquinazolin-2-yl)-2-(3,5-difluorophenyl)ethyl)-2-((3bS,4aR)-3-(difluoromethyl)-5,5-difluoro-3b,4,4a,5-tetrahydro-1H-cyclopropa[3,4]cyclopenta[1,2-c]pyrazol-1-yl)acetamide] the same measures were greater than 500 nM and 0.96 nM.
On the same counts, the results for `COCc1nccc(-c2ccc3c(=O)n(-c4ccc(Cl)c5c(NS(C)(=O)=O)nn(C)c45)c([C@H](Cc4cc(F)cc(F)c4)NC(=O)Cn4nc(C(F)F)c5c4C(F)(F)[C@@H]4C[C@H]54)nc3c2)n1` (atropisomer, axis not shown; (P)) [Example 74, N—((S)-1-((3P)-3-(4-chloro-1-methyl-3-(methylsulfonamido)-1H-indazol-7-yl)-7-(2-(methoxymethyl)pyrimidin-4-yl)-4-oxo-3,4-dihydroquinazolin-2-yl)-2-(3,5-difluorophenyl)ethyl)-2-((3bS,4aR)-3-(difluoromethyl)-5,5-difluoro-3b,4,4a,5-tetrahydro-1H-cyclopropa[3,4]cyclopenta[1,2-c]pyrazol-1-yl)acetamide] are greater than 500 nM and 0.079 nM.
In series [1], `COCc1nc(C)cc(-c2ccc3c(=O)n(-c4ccc(Cl)c5c(NS(C)(=O)=O)nn(C)c45)c([C@H](Cc4cc(F)cc(F)c4)NC(=O)Cn4nc(C(F)F)c5c4C(F)(F)[C@@H]4C[C@H]54)nc3c2)n1` (atropisomer, axis not shown; (P)) [Example 75, N—((S)-1-((3P)-3-(4-chloro-1-methyl-3-(methylsulfonamido)-1H-indazol-7-yl)-7-(2-(methoxymethyl)-6-methylpyrimidin-4-yl)-4-oxo-3,4-dihydroquinazolin-2-yl)-2-(3,5-difluorophenyl)ethyl)-2-((3bS,4aR)-3-(difluoromethyl)-5,5-difluoro-3b,4,4a,5-tetrahydro-1H-cyclopropa[3,4]cyclopenta[1,2-c]pyrazol-1-yl)acetamide] had a CC50 at 4 days greater than 500 nM. Moreover, in series [2], the EC50 was determined as 0.077 nM.
For `Cn1nc(NS(C)(=O)=O)c2c(Cl)ccc(-n3c([C@H](Cc4cc(F)cc(F)c4)NC(=O)Cn4nc(C(F)F)c5c4C(F)(F)[C@@H]4C[C@H]54)nc4cc(-c5ccnc(C6CCC6)n5)ccc4c3=O)c21` (atropisomer, axis not shown; (P)) [Example 76, N—((S)-1-((3P)-3-(4-chloro-1-methyl-3-(methylsulfonamido)-1H-indazol-7-yl)-7-(2-cyclobutylpyrimidin-4-yl)-4-oxo-3,4-dihydroquinazolin-2-yl)-2-(3,5-difluorophenyl)ethyl)-2-((3bS,4aR)-3-(difluoromethyl)-5,5-difluoro-3b,4,4a,5-tetrahydro-1H-cyclopropa[3,4]cyclopenta[1,2-c]pyrazol-1-yl)acetamide] the same measures were greater than 500 nM and 0.18 nM.
On the same counts, the results for `Cc1ncc(C)c(-c2ccc3c(=O)n(-c4ccc(Cl)c5c(NS(C)(=O)=O)nn(C)c45)c([C@H](Cc4cc(F)cc(F)c4)NC(=O)Cn4nc(C(F)F)c5c4C(F)(F)[C@@H]4C[C@H]54)nc3c2)n1` (atropisomer, axis not shown; (P)) [Example 77, N—((S)-1-((3P)-3-(4-chloro-1-methyl-3-(methylsulfonamido)-1H-indazol-7-yl)-7-(2,5-dimethylpyrimidin-4-yl)-4-oxo-3,4-dihydroquinazolin-2-yl)-2-(3,5-difluorophenyl)ethyl)-2-((3bS,4aR)-3-(difluoromethyl)-5,5-difluoro-3b,4,4a,5-tetrahydro-1H-cyclopropa[3,4]cyclopenta[1,2-c]pyrazol-1-yl)acetamide] are greater than 500 nM and 0.071 nM.

The values are drawn from US11541055B2, “Inhibitors of human immunodeficiency virus replication” (ViiV Healthcare UK (No. 5) LIMITED, priority 2018, dated 2023).
